Test results published in paper PMC7070906, “A Near-infrared Turn-on Fluorescent Sensor for Sensitive and Specific Detection of Albumin from Urine Samples” (Sensors (Basel, Switzerland), 2020).

Molecular target: T1, human serum albumin (HSA) (Homo sapiens, UniProt P02768)
T1 construct: gene ALB
Assay: fluorescence turn-on titration with HSA (one-site fit), Job's plot […], displacement assay
Type: binding

T1 sequence (P02768 25-609): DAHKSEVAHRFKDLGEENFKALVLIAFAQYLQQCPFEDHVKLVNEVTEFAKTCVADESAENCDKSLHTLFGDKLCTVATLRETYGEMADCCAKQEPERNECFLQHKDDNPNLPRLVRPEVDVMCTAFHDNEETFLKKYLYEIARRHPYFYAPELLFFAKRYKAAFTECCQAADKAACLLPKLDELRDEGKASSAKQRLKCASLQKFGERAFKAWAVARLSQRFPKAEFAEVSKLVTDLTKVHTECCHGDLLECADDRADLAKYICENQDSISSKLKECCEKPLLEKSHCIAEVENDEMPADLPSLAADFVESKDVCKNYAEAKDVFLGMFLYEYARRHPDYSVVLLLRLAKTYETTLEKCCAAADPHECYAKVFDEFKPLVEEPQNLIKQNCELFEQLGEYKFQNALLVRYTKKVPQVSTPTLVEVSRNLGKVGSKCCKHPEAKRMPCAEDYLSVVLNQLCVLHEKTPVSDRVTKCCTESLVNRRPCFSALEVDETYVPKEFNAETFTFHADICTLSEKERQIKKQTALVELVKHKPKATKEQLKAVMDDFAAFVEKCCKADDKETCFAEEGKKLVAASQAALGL

## CN(C)c1ccc(/C=C/C=C/C=C(\C#N)C(=O)c2cccc(Cl)c2)s1 [compound 5, (2E,4E,6E)-2-(3-chlorobenzoyl)-7-(5-(dimethylamino)thiophen-2-yl)hepta-2,4,6-trienenitrile]
  Kd: 15.4 ± 3.3 µM
